{"source": "patent US9751919B2", "about": "“Antimicrobial compositions comprising a hyaluronic acid binding peptide and a β-lactam antibiotic” (priority 2012, dated 2017)", "key": {"E. coli": {"tested_on": "E. coli", "assay": "Checkerboard assay (FIC index)", "format": "cell-based, Escherichia coli", "details": "E. coli 69716", "description": "Checkerboard assays were carried out as described by Bonapace et al.\nDiagnostic Microbiology and Infectious Diseases 2002; 44:363-366. In brief, checkerboard assays were performed in 96 well microtitre trays using an 8-by-8 well configuration. […] 96-well custom designed microtitre plates contained 100 ul/well of cation adjusted Mueller-Hinton broth (eg. for Enterobacteriaceae) with or without lysed horse blood (2-5% V/V) [eg. for S. pneumoniae] and were inoculated to achieve a final concentration of approximately 5×10^5 CFU/ml and incubated in ambient air for 24 hours prior to reading. Colony counts were performed periodically to confirm inocula. Quality control was performed every two weeks using a variety of ATCC QC organisms including; S. pneumoniae 49619, S. aureus 29213, E. faecalis 29212, E. coli 25922 and P. aeruginosa 27853. […] All peptides were assessed for synergy with β-lactams and vancomycin. For all antimicrobials as well as the peptides, CLSI criteria were used.\n(§1) The fractional inhibitory concentration index (FIC index) was used to interpret synergy, antagonism or additivity/indifference. FIC index=FIC of drug A+FIC of drug B where:\nThe FIC of drug A and drug B was calculated as follows, FIC drug A=MIC of drug A in combination/MIC of drug A alone and FIC of drug B=MIC of drug B in combination/MIC of drug B alone. Synergy was defined as FIC index ≦0.5, additivity/indifference defined as a FIC between 0.5 and 4 and antagonism defined as an FIC index >4.\n(§2) The checkerboard assays were carried out as described by Eliopoulos and Moellering (Chapter 9) in Antibiotic in Laboratory Medicine, Lorian Ed. 1996 as well as Bonapace et al. Diagnostic Microbiology and Infectious Diseases 2002; 44:363-366 and Bonapace et al. Diagnostic Microbiology and Infectious Diseases 2000; 38:43-50. In brief, checkerboard assays were performed in 96 well microtitre trays using an 8-by-8 well configuration. […] 96-well custom designed microtitre plates contained 100 ul/well of cation adjusted Mueller-Hinton broth (eg. for Enterobacteriaceae) with or without lysed horse blood (2-5% V/V) [eg. for S. pneumoniae] and were inoculated to achieve a final concentration of approximately 5×10^5 CFU/ml and incubated in ambient air for 24 hours prior to reading. Colony counts were performed periodically to confirm inocula. Quality control was performed every two weeks using a variety of ATCC QC organisms including; S. pneumoniae 49619, S. aureus 29213, E. faecalis 29212, E. coli 25922 and P. aeruginosa 27853. For all antimicrobials as well as PEP35, CLSI criteria was used.\n(§3) The FIC of drug A and drug B is calculated as follows, FIC drug A=MIC of drug A in combination/MIC of drug A alone and FIC of drug B=MIC of drug B in combination/MIC of drug B alone. Synergy is defined as FIC index ≦0.5, additivity/indifference FIC >0.5-4 and antagonism FIC index >4.\n(§4) Antimicrobials used included PEP35, cefazolin, ceftriaxone, vancomycin, linezolid, tigecycline and daptomycin versus Gram-positive cocci and PEP35, gentamicin, levofloxacin, piperacillin/tazobactam, meropenem and colistin (Polymyxin E) versus Gram-negative bacilli. These agents were obtained as laboratory grade powders from their respective manufacturers. Stock solutions were prepared and dilutions made as described by the Clinical Laboratory Standards Institute (2005 CLSI).\nOrganisms included Gram-positive cocci (2 strains of each): Methicillin-susceptible Staphylococcus aureus (MSSA), community-associated (CA) and healthcare-associated (HA) methicillin-resistant Staphylococcus aureus (MRSA), vancomycin-intermediate Staphylococcus aureus (VISA), vancomycin-resistant Staphylococcus aureus (VRSA), methicillin-resistant Staphylococcus epidermidis (MRSE), Streptococcus pyogenes, Streptococcus agalactiae, Streptococcus pneumoniae, Enterococcus faecalis, Enterococcus faecium and vancomycin-resistant enterococcus (VRE). […]"}, "VISA": {"tested_on": "VISA", "assay": "MIC (CLSI broth dilution), agent alone", "format": "cell-based, Staphylococcus aureus", "parameters": "unit: µg/mL"}, "S. pneumoniae": {"tested_on": "S. pneumoniae", "assay": "Checkerboard assay (FIC index)", "format": "cell-based, Streptococcus pneumoniae", "details": "antibiotic combined with PEP35", "description": "as §2, §1, §3, §4\n(§5) Organisms included Gram-positive cocci (2 strains of each): Methicillin-susceptible Staphylococcus aureus (MSSA), community-associated (CA) and healthcare-associated (HA) methicillin-resistant Staphylococcus aureus (MRSA), vancomycin-intermediate Staphylococcus aureus (VISA), vancomycin-resistant Staphylococcus aureus (VRSA), methicillin-resistant Staphylococcus epidermidis (MRSE), Streptococcus pyogenes, Streptococcus agalactiae, Streptococcus pneumoniae, Enterococcus faecalis, Enterococcus faecium and vancomycin-resistant enterococcus (VRE). Gram-negative bacilli tested (2 strains of each) included: E. coli, Pseudomonas aeruginosa, Klebsiella pneumoniae, K. oxytoca, Enterobacter cloacae, P. mirabilis and Stenotrophomonas maltophilia. MIC testing, following two subcultures from frozen stock were determined by the CLSI 2005 approved broth microdilution method."}, "S. pyogenes": {"tested_on": "S. pyogenes", "assay": "Checkerboard assay (FIC index)", "format": "cell-based, Streptococcus pyogenes", "details": "antibiotic combined with PEP35", "description": "as §2, §1, §3, §4, §5"}}, "note": "Several values for one entry are separate records, joined by “and”; a condition that tells them apart may be missing. Equal entries are not always repeated. Marks after values point to notes of the source that are not given here."}
{"molecule": "CO/N=C(\\C(=O)N[C@@H]1C(=O)N2C(C(=O)O)=C(CSc3nc(=O)c(=O)[nH]n3C)CS[C@H]12)c1csc(N)n1", "note": "[Ceftriaxone]", "values": [{"measurement": "Avg ΣFIC (range)", "setting": "E. coli; antibiotic combined with PEP35", "value": 1.04}, {"measurement": "Avg ΣFIC (range)", "setting": "E. coli; β-lactam combined with HybPEP35-1", "value": 0.41}, {"measurement": "Avg ΣFIC (range)", "setting": "E. coli; β-lactam combined with PEP-52", "value": ">1*"}, {"measurement": "Avg ΣFIC (range)", "setting": "E. coli; β-lactam combined with Scrambled PEP35", "value": 0.41}, {"measurement": "MIC", "setting": "VISA; VISA 92", "value": "1024/1024"}, {"measurement": "MIC", "setting": "VISA; VISA 92, in µg/mL", "value": 1024}, {"measurement": "MIC", "setting": "VISA; VISA 95, in µg/mL", "value": 512}, {"measurement": "MIC", "setting": "VISA; VISA 95, listed as CEFTRIAXONE, in µg/mL", "value": "1024 and 512"}, {"measurement": "MIC", "setting": "VISA; VISA 96", "value": "256 and 128/128 and 256/256"}, {"measurement": "Avg ΣFIC (range)", "setting": "S. pneumoniae; S. pneumoniae-Pen I 72302 (MHB)", "value": "1.05 (0.75-1.25)"}, {"measurement": "Avg ΣFIC (range)", "setting": "S. pneumoniae; S. pneumoniae-Pen I 78663 (MHB)", "value": "1.1 (1.0-1.25)"}, {"measurement": "Avg ΣFIC (range)", "setting": "S. pneumoniae; S. pneumoniae-Pen R 76065 (MHB)", "value": "1.21 (1.03-1.5)"}, {"measurement": "Avg ΣFIC (range)", "setting": "S. pneumoniae; S. pneumoniae-Pen R 78519 (MHB)", "value": "1.05 (0.75-1.25)"}, {"measurement": "Avg ΣFIC (range)", "setting": "S. pneumoniae; S. pneumoniae-Pen S 70400 (MHB)", "value": "0.99 (0.62-1.06)"}, {"measurement": "Avg ΣFIC (range)", "setting": "S. pneumoniae; S. pneumoniae-Pen S 71263 (MHB)", "value": "0.91 (0.62-1.12)"}, {"measurement": "Avg ΣFIC (range)", "setting": "S. pyogenes; S. pyogenes 77765 (MHB)", "value": "1.19 (0.03-1.5)"}, {"measurement": "Avg ΣFIC (range)", "setting": "S. pyogenes; S. pyogenes 79531 (MHB)", "value": "1.19 (1.03-1.5)"}]}
